From the CheMixHub viscosity set
“And” between values parts separate entries of the source, which are not always exact repeats. Equal entries are not always repeated.

Assays:
[1] = xn = mol fraction of the nth substance listed

C=CCN=C=S
viscosity [mPa·s]
Conditions | 298.15 K | 303.15 K | 313.15 K | 323.15 K
100 kPa | – | – | 0.592 | –
101 kPa | 0.662 | 0.671 | – | 0.526

OCCO
Conditions | viscosity
293.15 K, 101.3 kPa | 21.4 mPa·s and 21.62 mPa·s
293.15 K, 101.32 kPa | 19.2 mPa·s
297.85 K, 101 kPa | 17.7 mPa·s
298.15 K, 100 kPa | 17.7 mPa·s and 17.87 mPa·s
298.15 K, 101.3 kPa | 16.1 mPa·s
298.15 K, 101.33 kPa | 15.31 mPa·s
302.85 K, 101 kPa | 14.4 mPa·s
303 K, 101 kPa | 15 mPa·s
303.15 K, 101.33 kPa | 12.24 mPa·s
307.85 K, 101 kPa | 11.92 mPa·s
308.15 K, 100 kPa | 11.07 mPa·s
308.15 K, 101 kPa | 10.97 mPa·s and 12 mPa·s and 11.66 mPa·s
308.15 K, 101.33 kPa | 9.945 mPa·s
312.95 K, 101 kPa | 9.95 mPa·s
313.15 K, 101.3 kPa | 9.53 mPa·s
313.15 K, 101.32 kPa | 8.45 mPa·s
313.15 K, 101.33 kPa | 9.17 mPa·s and 9.535 mPa·s
317.75 K, 101 kPa | 8.44 mPa·s
318.15 K, 100 kPa | 9.59 mPa·s and 7.888 mPa·s and 8.126 mPa·s
318.15 K, 101.3 kPa | 8.08 mPa·s
318.15 K, 101.33 kPa | 7.68 mPa·s
322.75 K, 101 kPa | 7.19 mPa·s
323.15 K, 101.3 kPa | 6.96 mPa·s and 6.91 mPa·s

CCOC(=O)CCBr
Conditions | viscosity [mPa·s]
303.15 K, 101 kPa | 1.867

CCC(=O)c1ccccc1
viscosity
Conditions | 303.15 K | 313.15 K | 318.15 K
100 kPa | 1.51 mPa·s | – | –
101 kPa | 1.51 mPa·s and 1.515 mPa·s and 1.622 mPa·s | 1.423 mPa·s and 1.449 mPa·s | 1.377 mPa·s

CC(CC(C)(C)C)CP(=O)([O-])CC(C)CC(C)(C)C.CCCCCCCC[P+](C)(C)C (stereo not given)
101 kPa
Conditions | viscosity [mPa·s]
298.15 K | 804
303.15 K | 560
308.15 K | 408
313.15 K | 306
318.15 K | 227
323.15 K | 177

OCCO + CO
[1]
Conditions | viscosity [mPa·s]
293.15 K, 101.33 kPa, x1 = 0.0476 | 0.724
293.15 K, 101.33 kPa, x1 = 0.0598 | 0.766
293.15 K, 101.33 kPa, x1 = 0.0918 | 0.914
293.15 K, 101.33 kPa, x1 = 0.1023 | 0.918
293.15 K, 101.33 kPa, x1 = 0.1742 | 1.243
293.15 K, 101.33 kPa, x1 = 0.2098 | 1.409
293.15 K, 101.33 kPa, x1 = 0.3191 | 2.142
293.15 K, 101.33 kPa, x1 = 0.3538 | 2.413
293.15 K, 101.33 kPa, x1 = 0.4072 | 2.906
293.15 K, 101.33 kPa, x1 = 0.4225 | 3.085
293.15 K, 101.33 kPa, x1 = 0.4474 | 3.338
293.15 K, 101.33 kPa, x1 = 0.4889 | 3.824
293.15 K, 101.33 kPa, x1 = 0.5955 | 5.485
293.15 K, 101.33 kPa, x1 = 0.6932 | 7.481
293.15 K, 101.33 kPa, x1 = 0.836 | 11.43
293.15 K, 101.33 kPa, x1 = 0.859 | 12.3
298.15 K, 101 kPa, x1 = 0.1 | 0.8363
298.15 K, 101 kPa, x1 = 0.2 | 1.245
298.15 K, 101 kPa, x1 = 0.2969 | 1.998
298.15 K, 101 kPa, x1 = 0.3 | 1.795
298.15 K, 101 kPa, x1 = 0.34 | 2.045
298.15 K, 101 kPa, x1 = 0.4 | 2.562
298.15 K, 101 kPa, x1 = 0.5 | 3.602
298.15 K, 101 kPa, x1 = 0.6 | 5.022
298.15 K, 101 kPa, x1 = 0.7 | 6.964
298.15 K, 101 kPa, x1 = 0.8 | 9.561
298.15 K, 101 kPa, x1 = 0.9 | 13.09
308.15 K, 101 kPa, x1 = 0.1 | 0.7007
308.15 K, 101 kPa, x1 = 0.2 | 1.011
308.15 K, 101 kPa, x1 = 0.2969 | 1.634
308.15 K, 101 kPa, x1 = 0.3 | 1.442
308.15 K, 101 kPa, x1 = 0.4 | 2.032
308.15 K, 101 kPa, x1 = 0.5 | 2.818
308.15 K, 101 kPa, x1 = 0.6 | 3.883
308.15 K, 101 kPa, x1 = 0.7 | 5.269
308.15 K, 101 kPa, x1 = 0.8 | 6.952
308.15 K, 101 kPa, x1 = 0.9 | 9.251
318.15 K, 101 kPa, x1 = 0.1 | 0.6194
318.15 K, 101 kPa, x1 = 0.2 | 0.8557
318.15 K, 101 kPa, x1 = 0.2969 | 1.36
318.15 K, 101 kPa, x1 = 0.3 | 1.172
318.15 K, 101 kPa, x1 = 0.4 | 1.59
318.15 K, 101 kPa, x1 = 0.5 | 2.134
318.15 K, 101 kPa, x1 = 0.6 | 2.844
318.15 K, 101 kPa, x1 = 0.7 | 3.783
318.15 K, 101 kPa, x1 = 0.8 | 4.96
318.15 K, 101 kPa, x1 = 0.9 | 6.432

CCOC(=O)CC(C)=O + CCCCCO
viscosity [mPa·s], [1], 100 kPa
Conditions | x1 = 0.0902 | x1 = 0.1791 | x1 = 0.2695 | x1 = 0.3621 | x1 = 0.4424 | x1 = 0.5633 | x1 = 0.6447 | x1 = 0.7739 | x1 = 0.8864
293.15 K | 2.988 | 2.424 | 2.132 | 1.935 | 1.8 | 1.67 | 1.635 | 1.603 | 1.599
298.15 K | 2.691 | 2.191 | 1.897 | 1.705 | 1.602 | 1.52 | 1.491 | 1.481 | 1.468

OCCO + CCO
viscosity [mPa·s], [1], 101 kPa
Conditions | x1 = 0.1 | x1 = 0.2 | x1 = 0.3 | x1 = 0.3778 | x1 = 0.4 | x1 = 0.5 | x1 = 0.6 | x1 = 0.7 | x1 = 0.8 | x1 = 0.9
298.15 K | 1.439 | 1.908 | 2.546 | 3.567 | 3.382 | 4.487 | 5.986 | 7.908 | 10.41 | 13.61
308.15 K | 1.05 | 1.524 | 1.991 | 2.688 | 2.581 | 3.346 | 4.363 | 5.645 | 7.295 | 9.374
318.15 K | 0.9744 | 1.253 | 1.604 | 2.13 | 2.053 | 2.598 | 3.325 | 4.216 | 5.306 | 6.652

O=CN1CCOCC1 + Cc1cccc(C)c1
viscosity [mPa·s], [1]
Conditions | 298.15 K | 303.15 K | 313.15 K | 323.15 K
101 kPa, x2 = 0.1 | 5.508 | 4.826 | 3.793 | 3.081
101 kPa, x2 = 0.2 | 4.047 | 3.589 | 2.886 | 2.4
101 kPa, x2 = 0.3 | 3.049 | 2.741 | 2.257 | 1.905
101 kPa, x2 = 0.4 | 2.34 | 2.132 | 1.778 | 1.522
101 kPa, x2 = 0.5 | 1.792 | 1.646 | 1.381 | 1.192
101 kPa, x2 = 0.6 | 1.38 | 1.267 | 1.076 | 0.9311
101 kPa, x2 = 0.7 | 1.082 | 1.002 | 0.8623 | 0.7574
101 kPa, x2 = 0.8 | 0.8664 | 0.8124 | 0.708 | 0.6298
101 kPa, x2 = 0.9 | 0.7069 | 0.6603 | 0.586 | 0.5286
101.3 kPa, x2 = 0.03245 | 7.014 | – | – | –
101.3 kPa, x2 = 0.06364 | 6.442 | – | – | –
101.3 kPa, x2 = 0.09907 | 5.89 | – | – | –
101.3 kPa, x2 = 0.1608 | 5.016 | – | – | –
101.3 kPa, x2 = 0.2806 | 3.707 | – | – | –
101.3 kPa, x2 = 0.3561 | 3.033 | – | – | –
101.3 kPa, x2 = 0.4744 | 2.278 | – | – | –
101.3 kPa, x2 = 0.5701 | 1.829 | – | – | –
101.3 kPa, x2 = 0.6556 | 1.511 | – | – | –
101.3 kPa, x2 = 0.6984 | 1.38 | – | – | –
101.3 kPa, x2 = 0.7819 | 1.159 | – | – | –
101.3 kPa, x2 = 0.876 | 0.961 | – | – | –
101.3 kPa, x2 = 0.9337 | 0.875 | – | – | –

CCCCCCCCCCCCCCCCCC + CCCCCCC
[1], 101 kPa, x2 = 0.5
Conditions | viscosity [mPa·s]
298 K | 1.73
318 K | 1.241

NCc1ccccc1 + CCCC(C)O
viscosity [mPa·s], [1], 101.33 kPa
Conditions | x1 = 0.1 | x1 = 0.2002 | x1 = 0.3001 | x1 = 0.4001 | x1 = 0.4997 | x1 = 0.6 | x1 = 0.6989 | x1 = 0.8 | x1 = 0.8998
298.15 K | 3.179 | 2.906 | 2.676 | 2.466 | 2.274 | 2.11 | 1.976 | 1.854 | 1.75
303.15 K | 2.626 | 2.395 | 2.192 | 2.038 | 1.893 | 1.765 | 1.666 | 1.587 | 1.532
308.15 K | 2.199 | 2.034 | 1.884 | 1.759 | 1.642 | 1.559 | 1.482 | 1.436 | 1.401

NCc1ccccc1 + COc1ccccc1
[1], 303.15 K, 101 kPa
Conditions | viscosity [mPa·s]
x1 = 0.1 | 0.939
x1 = 0.2 | 0.975
x1 = 0.3 | 1.016
x1 = 0.3999 | 1.061
x1 = 0.4999 | 1.11
x1 = 0.5999 | 1.163
x1 = 0.7 | 1.22
x1 = 0.8 | 1.281
x1 = 0.9 | 1.346
